Laboratory results as given in PubChem BioAssay AID2060909 (Molecular Pharmacology Branch, DTP, NCI, 2025).
Several values for one entry are separate records, joined by “and”; a condition that tells them apart may be missing. Equal entries are not always repeated. Each block holds one compound with its values, some of them ahead of it.

Tested on: 362531-283-R-J2-PDC complex spheroid viability
Experiment: Anticancer human tumor 362531-283-R-J2-PDC patient-derived colon adenocarcinoma cell line growth inhibition [RAS]
Conditions: for viability, T/C: stronger effect = lower value
Procedure, shortened: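 Agents were tested in combination matrices in half-log decrements from a top concentration at or near clinical Cmax (10 microM if undetermined). Targets were multi-cell spheroids of tumour lines plus HUVEC and MSC stromal cells.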

[1] = curve of first compound, second compound 0.000949 µM
[2] = curve of first compound, second compound 0.003 µM
[3] = curve of first compound, second compound 0.00949 µM
[4] = curve of first compound, second compound 0.03 µM
[5] = curve of first compound, second compound 0.0949 µM
[6] = curve of first compound, second compound 0.3 µM
[7] = second compound 0.000949 µM, first compound 0.0316 µM
[8] = second compound 0.000949 µM, first compound 0.1 µM
[9] = second compound 0.000949 µM, first compound 0.316 µM
[10] = second compound 0.000949 µM, first compound 1 µM
[11] = second compound 0.000949 µM, first compound 3.16 µM
[12] = second compound 0.000949 µM, first compound 10 µM
[13] = second compound 0.003 µM, first compound 0.0316 µM
[14] = second compound 0.003 µM, first compound 0.1 µM
[15] = second compound 0.003 µM, first compound 0.316 µM
[16] = second compound 0.003 µM, first compound 1 µM
[17] = second compound 0.003 µM, first compound 3.16 µM
[18] = second compound 0.003 µM, first compound 10 µM
[19] = second compound 0.00949 µM, first compound 0.0316 µM
[20] = second compound 0.00949 µM, first compound 0.1 µM
[21] = second compound 0.00949 µM, first compound 0.316 µM
[22] = second compound 0.00949 µM, first compound 1 µM
[23] = second compound 0.00949 µM, first compound 3.16 µM
[24] = second compound 0.00949 µM, first compound 10 µM
[25] = second compound 0.03 µM, first compound 0.0316 µM
[26] = second compound 0.03 µM, first compound 0.1 µM
[27] = second compound 0.03 µM, first compound 0.316 µM
[28] = second compound 0.03 µM, first compound 1 µM
[29] = second compound 0.03 µM, first compound 3.16 µM
[30] = second compound 0.03 µM, first compound 10 µM
[31] = second compound 0.0949 µM, first compound 0.0316 µM
[32] = second compound 0.0949 µM, first compound 0.1 µM
[33] = second compound 0.0949 µM, first compound 0.316 µM
[34] = second compound 0.0949 µM, first compound 1 µM
[35] = second compound 0.0949 µM, first compound 3.16 µM
[36] = second compound 0.0949 µM, first compound 10 µM
[37] = second compound 0.3 µM, first compound 0.0316 µM
[38] = second compound 0.3 µM, first compound 0.1 µM
[39] = second compound 0.3 µM, first compound 0.316 µM
[40] = second compound 0.3 µM, first compound 1 µM
[41] = second compound 0.3 µM, first compound 3.16 µM
[42] = second compound 0.3 µM, first compound 10 µM
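Note: spheroids exposed to the agents for 7 days before readout.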
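Throughout, for viability, T/C: luminescence viability as percent of DMSO vehicle control wells.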

IC50 [1]: 1.29 µM
IC50 [2]: 1.61 µM
IC50 [3]: 0.952 µM
IC50 [4]: 0.849 µM
IC50 [5]: 0.431 µM
IC50 [6]: < 0.0316 µM
Structure (SMILES): CC(Nc1ccc2c(c1)OCCn1cc(N3C(=O)OCC3C(F)F)nc1-2)C(N)=O (stereo not given) + CCn1c(-c2cc(N3CCN(C)CC3)cnc2C(C)OC)c2c3cc(ccc31)-c1csc(n1)CC(NC(=O)C1CC1C)C(=O)N1CCCC(N1)C(=O)OCC(C)(C)C2
viability, T/C [7]: 98.7%
viability, T/C [8]: 107%
viability, T/C [9]: 86.6%
viability, T/C [10]: 58%
viability, T/C [11]: 26.4%
viability, T/C [12]: 27.9%
viability, T/C [13]: 103%
viability, T/C [14]: 98.8%
viability, T/C [15]: 93%
viability, T/C [16]: 59.5%
viability, T/C [17]: 36.7%
viability, T/C [18]: 27.5%
viability, T/C [19]: 96.8%
viability, T/C [20]: 105%
viability, T/C [21]: 64.9%
viability, T/C [22]: 56.2%
viability, T/C [23]: 32.4%
viability, T/C [24]: 32.3%
viability, T/C [25]: 97.2%
viability, T/C [26]: 89.6%
viability, T/C [27]: 70.7%
viability, T/C [28]: 45.8%
viability, T/C [29]: 38.7%
viability, T/C [30]: 34.9%
viability, T/C [31]: 88.6%
viability, T/C [32]: 73%
viability, T/C [33]: 51.9%
viability, T/C [34]: 41.7%
viability, T/C [35]: 32.5%
viability, T/C [36]: 29.4%
viability, T/C [37]: 32.6%
viability, T/C [38]: 28.3%
viability, T/C [39]: 11.2%
viability, T/C [40]: 3.11%
viability, T/C [41]: 3.38%
viability, T/C [42]: 3.53%

IC50 (compound alone, run of 07/15/2024): 6.73 µM and > 10 µM and 9.19 µM
Structure (SMILES): C#Cc1c(F)ccc2cc(O)cc(-c3ncc4c(N5CC6CCC(C5)N6)nc(OCC56CCCN5CC(F)C6)nc4c3F)c12 (stereo not given)
viability, T/C (compound 0.0316 µM): 99.9% [middle of 8 runs]
viability, T/C (compound 0.1 µM): 101% [middle of 8 runs]
viability, T/C (compound 0.316 µM): 94.8% [middle of 8 runs]
viability, T/C (compound 1 µM): 79.1% [middle of 8 runs]
viability, T/C (compound 10 µM): 54.6% [middle of 8 runs]

IC50 [1]: > 10 µM
IC50 [2]: > 10 µM
IC50 [3]: > 10 µM
IC50 [4]: > 10 µM
IC50 [5]: > 10 µM
IC50 [6]: > 10 µM
Structure (SMILES): C[C@@H](NC(=O)c1ncnc(N)c1Cl)c1ncc(C(=O)Nc2cc(C(F)(F)F)c(Cl)cn2)s1 + CCn1c(-c2cccnc2C(C)OC)c2c3cc(ccc31)N1CCOC(CC(NC(=O)C(C(C)C)N(C)C(=O)C3(F)CCN(C(=O)C#CC(C)(C)N(C)C)CC3)C(=O)N3CCCC(N3)C(=O)OCC(C)(C)C2)C1
viability, T/C [7]: 111%
viability, T/C [8]: 107%
viability, T/C [9]: 91.5%
viability, T/C [10]: 106%
viability, T/C [11]: 73.3%
viability, T/C [12]: 61.4%
viability, T/C [13]: 112%
viability, T/C [14]: 94%
viability, T/C [15]: 109%
viability, T/C [16]: 92.5%
viability, T/C [17]: 79.2%
viability, T/C [18]: 66%
viability, T/C [19]: 105%
viability, T/C [20]: 108%
viability, T/C [21]: 87.1%
viability, T/C [22]: 88.5%
viability, T/C [23]: 82.1%
viability, T/C [24]: 73.6%
viability, T/C [25]: 107%
viability, T/C [26]: 99.3%
viability, T/C [27]: 105%
viability, T/C [28]: 91.7%
viability, T/C [29]: 89.7%
viability, T/C [30]: 64.9%
viability, T/C [31]: 97.9%
viability, T/C [32]: 96.1%
viability, T/C [33]: 89.5%
viability, T/C [34]: 91.4%
viability, T/C [35]: 87.7%
viability, T/C [36]: 73.9%
viability, T/C [37]: 103%
viability, T/C [38]: 101%
viability, T/C [39]: 85.4%
viability, T/C [40]: 87.1%
viability, T/C [41]: 91.9%
viability, T/C [42]: 80.1%
